Here are results for 19 molecules from patent EP4678629A1, “IONIZABLE LIPID MOLECULE, PREPARATION METHOD THEREFOR AND USE THEREOF” (Maxirna (Shanghai) Pharmaceutical Co., Ltd., priority 2023, dated 2024).

The structures appear in SMILES notation.

A short description of data set [1]: Encapsulation efficiency of the lipid nanoparticle (eGFP mRNA) by Ribogreen method. The class given is physicochemical. The conditions noted are these: LNP encapsulating eGFP mRNA, ionizable lipid/DOPE/cholesterol/DMG-PEG2000 50/10/48.25/1.25 mol%, N/P 12. The method, boiled down: (§1)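 LNPs were made by microfluidic mixing of ionizable lipid/DOPE/cholesterol/DMG-PEG2000 (50/10/48.25/1.25 mol%) in ethanol with eGFP mRNA in 20 mM citrate pH 6.1, N/P 12, then ultrafiltered into DPBS and 0.2 µm filtered. Size and PDI by DLS at 173° backscatter; encapsulation by Ribogreen.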

The subject of the next data set is DC2.4 cells. Nature of the data set: In vitro transfection of cells with eGFP-mRNA lipid nanoparticle (LNP preparation), fluorescence imaging and flow cytometry. The class given is cell-based, mouse. The conditions noted are these: eGFP positivity rate, DC2.4 cells, 200 ng of mRNA per well, after 24 hours. The method in brief: (§2)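 Mouse bone marrow-derived DC2.4 dendritic cells seeded at 2 × 10^5 cells/well in DMEM with 10% FBS, transfected with eGFP-mRNA LNPs the next day at 37 °C, 5% CO2. After 24 hours, viability, eGFP-positive rate and mean fluorescence intensity read by fluorescence imaging and flow cytometry.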
(In flow cytometry, cells or beads pass a laser one at a time.)

Test in data set [2]: as above
The format is cell-based, mouse. To be noted: mouse, dc2.4 cells, 200 ng of mRNA per well, after 24 hours; read-out: Cell viability, %. The method, boiled down: as §2

Data set [3] can be described thus: Size and polydispersity index (PDI) of the lipid nanoparticle by dynamic light scattering. The format is physicochemical. To be noted: LNP encapsulating eGFP mRNA, ionizable lipid/DOPE/cholesterol/DMG-PEG2000 50/10/48.25/1.25 mol%, N/P 12; for Particle size: in nm (unit assumed). The method, boiled down:
as §1

As usually defined, the viability is a per cent measure of how many cells are alive, often set against a control. As for `CCCCCC/C=C\COC(=O)CCCCCCCN(CCO)CCCN(CCCCCCCC(=O)OC/C=C\CCCCCC)CCCCCCCC(=O)OC/C=C\CCCCCC` [Example 6, Di((Z)-non-2-en-1-yl)8,8'-((3-((2-hydroxyethyl)(8-(((Z)-non-2-en-1-yl)oxo)-8-oxooctyl)amino)propyl)azanediyl)dioctanoate], the “Encapsulation rate, %” value in data set [1] came to 92.30%. Moreover, the “Positive rate, %” value in the data set on DC2.4 cells is given as 85.29%. In addition, the viability at 24 h in data set [2] amounted to 80.5%. In data set [3], this molecule showed a PDI of 0.13.
Turning to `CCCCCCCCCCCCCOC(=O)CCN(CCO)CCCN(CCC(=O)OCCCCCCCCCCCCC)CCC(=O)OCCCCCCCCCCCCC` [Example 70, Ditridecyl 3,3'-((3-((2-hydroxyethyl)(3-oxo-3-(tridecyloxy)propyl)amino)propyl)azanediyl)dipropionate], the “Encapsulation rate, %” value in data set [1] is listed as 97.26%. The “Positive rate, %” value in the data set on DC2.4 cells came to 99.07%. The viability at 24 h in data set [2] came to 91.2%. For the same molecule, the PDI in data set [3] turned out to be 0.11.
As to `CCCCCCCCCCCOC(=O)CN(CCCO)CCCN(CC(=O)OCCCCCCCCCCC)CC(=O)OCCCCCCCCCCC` [Example 74, Diundecyl 2,2'-((3-((3-hydroxypropyl)(2-oxo-2-(undecyloxy)ethyl)amino)propyl)azanediyl)diacetate], in data set [1], the “Encapsulation rate, %” value is 96.91%. Also, the “Positive rate, %” value in the data set with DC2.4 cells was 91.81%. The viability at 24 h in data set [2] is 71%. Also, in data set [3], the Particle size was found to be 96.91.
With `CCCCCCCCCCCCCCCOC(=O)CCCCCCCN(CCO)CCCN(CCCCCCCC(=O)OCCCCCCCCCCCCCCC)CCCCCCCC(=O)OCCCCCCCCCCCCCCC` [Example 22, Dipentadecyl 8,8'-((3-((2-hydroxyethyl)(8-oxo-8-(pentadecyloxy)octyl)amino)propyl)azanediyl)dioctanoate], in data set [1], the “Encapsulation rate, %” value was found to be 78.46%. The “Positive rate, %” value in the data set with DC2.4 cells is reported as 98.21%. In addition, in data set [2], the viability at 24 h turned out to be 95.1%. In data set [3], this molecule came in with a PDI of 0.11.
As for `CCCCCCCCCCCCCCOC(=O)CCCCCCCN(CCO)CCCN(CCCCCCCC(=O)OCCCCCCCCCCCCCC)CCCCCCCC(=O)OCCCCCCCCCCCCCC` [Example 59, Ditetradecyl 8,8'-((3-((2-hydroxyethyl)(8-oxo-8-(tetradecyloxy)octyl)amino)propyl)azanediyl)dioctanoate], in data set [1], the “Encapsulation rate, %” value was 91.15%. For the same molecule, the “Positive rate, %” value with DC2.4 cells was 96.89%. Moreover, in data set [2], the viability at 24 h amounted to 55.6%. Besides, the PDI in data set [3] came out at 0.08.
On to `CCCCCCCCCCCCCCOC(=O)CCCCCCCN(CCCO)CCCN(CCCCCCCC(=O)OCCCCCCCCCCCCCC)CCCCCCCC(=O)OCCCCCCCCCCCCCC` [Example 60, Ditetradecyl 8,8'-((3-((3-hydroxypropyl)(8-oxo-8-(tetradecyloxy)octyl)amino)propyl)azanediyl)dioctanoate], for which the “Encapsulation rate, %” value in data set [1] came to 99.46%. Also, the “Positive rate, %” value in the data set on DC2.4 cells is 97.14%. Besides, the viability at 24 h in data set [2] worked out at 72.3%. In data set [3], the PDI was found to be 0.10 and the Particle size was 65.40.
In the same order, the values of `CCCCCCCCCCCCOC(=O)CCCCCCCN(CCCO)CCCN(CCCCCCCC(=O)OCCCCCCCCCCCC)CCCCCCCC(=O)OCCCCCCCCCCCC` [Example 51, Didodecyl 8,8'-((3-((8-(dodecyloxy)-8-oxooctyl)(3-hydroxypropyl)amino)propyl)azanediyl)dioctanoate] are 99.28%, 99.64%, 92%, 0.18 and 75.07.
`CCCCCCCCCOC(=O)CCCCCCCN(CCO)CCCN(CCCCCCCC(=O)OCCCCCCCCC)CCCCCCCC(=O)OCCCCCCCCC` [Example 9, Dinonyl 8,8'-((3-((2-hydroxyethyl)(8-(nonoxy)-8-oxooctyl)amino)propyl)azanediyl)dioctanoate]: the “Encapsulation rate, %” value in data set [1] is on record as 78.69%. Further, in the data set on DC2.4 cells, the “Positive rate, %” value is 83.84%. Besides, the viability at 24 h in data set [2] was 55.6%. Further, the PDI in data set [3] is 0.22.
Taken in the same sequence, the figures for `CCCCCCCCCCCCOC(=O)CCCN(CCO)CCCN(CCCC(=O)OCCCCCCCCCCCC)CCCC(=O)OCCCCCCCCCCCC` [Example 94, Dodecyl 4-(22-(2-hydroxyethyl)-14,26-dioxo-18,22-diaza-13,27-dioxanonatriacontane-18-yl)butanoate] were 96.63%, 88.07%, 98.6% and 0.19.
For `CCCCCCCCCCCOC(=O)CCCCCCN(CCCCO)CCCN(CCCCCCC(=O)OCCCCCCCCCCC)CCCCCCC(=O)OCCCCCCCCCCC` [Example 37], the “Encapsulation rate, %” value in data set [1] came to 99.26%. In the data set with DC2.4 cells, the “Positive rate, %” value is given as 89.37%. In addition, the viability at 24 h in data set [2] was determined as 96.6%. For the same molecule, in data set [3], the PDI was 0.15 and the Particle size is given as 77.57.
As for `CCCCCCCCCCCCOC(=O)CCCCCN(CCCCO)CCCN(CCCCCC(=O)OCCCCCCCCCCCC)CCCCCC(=O)OCCCCCCCCCCCC` [Example 46, Didodecyl 6,6'-((3-((6-(dodecyloxy)-6-oxohexyl)(4-hydroxybutyl)amino)propyl)azanediyl)dihexanoate], the “Encapsulation rate, %” value in data set [1] is 99.86%. Also, in the data set with DC2.4 cells, the “Positive rate, %” value came out at 96.64%. Moreover, the viability at 24 h in data set [2] was found to be 97.4%. In data set [3], the PDI came to 0.22 and the Particle size stood at 72.75.
In the case of `CCC/C=C\COC(=O)CCCCCCCN(CCO)CCCN(CCCCCCCC(=O)OC/C=C\CCC)CCCCCCCC(=O)OC/C=C\CCC` [Example 17, Di((Z)-hexyl-2-en-1-yl)8,8'-((3-((8-(((Z)-hexyl-2-en-1-yl)oxo)-8-oxooctyl)(2-hydroxyethyl)amino)propyl)azanediyl)dioctanoate], in data set [1], the “Encapsulation rate, %” value is 90.04%. Also, the “Positive rate, %” value with DC2.4 cells stood at 95.88%. For the same molecule, the viability at 24 h in data set [2] is 71.1%. The PDI in data set [3] amounted to 0.26.
As for `CCCCCCCCCCCOC(=O)CCCN(CCCO)CCCN(CCCC(=O)OCCCCCCCCCCC)CCCC(=O)OCCCCCCCCCCC` [Example 64, Diundecyl 4,4'-((3-((3-hydroxypropyl)(4-oxo-4-(undecyloxy)butyl)amino)propyl)azanediyl)dibutanoate], in data set [1], the “Encapsulation rate, %” value was found to be 98.93%. Besides, in the data set on DC2.4 cells, the “Positive rate, %” value came out at 99.18%. Moreover, the viability at 24 h in data set [2] was 64.6%. Also, in data set [3], the PDI stood at 0.19 and the Particle size was 90.58.
Consider `CCCCC/C=C\C/C=C\CCCCCCCCOC(=O)CCCN(CCCO)CCCN(CCCC(=O)OCCCCCCCC/C=C\C/C=C\CCCCC)CCCC(=O)OCCCCCCCC/C=C\C/C=C\CCCCC` [Example 108], for which the “Encapsulation rate, %” value in data set [1] is listed as 92.30%. For the same molecule, in the data set on DC2.4 cells, the “Positive rate, %” value came to 93.99%. For the same molecule, the viability at 24 h in data set [2] was 92.3%. In data set [3], this molecule displayed a PDI of 0.13 and a Particle size of 95.34.
For `CCCCCCCCCCCOC(=O)CCN(CCCO)CCCN(CCC(=O)OCCCCCCCCCCC)CCC(=O)OCCCCCCCCCCC` [Example 68, Diundecyl 3,3'-((3-((3-hydroxypropyl)(3-oxo-3-(undecyloxy)propyl)amino)propyl)azanediyl)dipropionate], in data set [1], the “Encapsulation rate, %” value was 95.99%. For the same molecule, in the data set on DC2.4 cells, the “Positive rate, %” value came out at 98.77%. Moreover, the viability at 24 h in data set [2] turned out to be 94.9%. The molecule further registered a PDI in data set [3] of 0.18.
In the case of `CCCCC/C=C\C/C=C\CCCCCCCCOC(=O)CCCN(CCO)CCCN(CCCC(=O)OCCCCCCCC/C=C\C/C=C\CCCCC)CCCC(=O)OCCCCCCCC/C=C\C/C=C\CCCCC` [Example 80, Di((9Z,12Z)-octadeca-9,12-dien-1-yl)4,4'-((3-((2-hydroxyethyl)(4-(((9Z,12Z)-octadeca-9,12-dien-1-yl)oxo)-4-oxobutyl)amino)propyl)azanediyl)dibutanoate], in data set [1], the “Encapsulation rate, %” value is 99.14%. Also, the “Positive rate, %” value in the data set on DC2.4 cells is 94.60%. For the same molecule, the viability at 24 h in data set [2] turned out to be 87.3%. This molecule also had a Particle size in data set [3] of 99.14.
Turning to `CCCCCCCCCCCCCOC(=O)CCCCCN(CCO)CCCN(CCCCCC(=O)OCCCCCCCCCCCCC)CCCCCC(=O)OCCCCCCCCCCCCC` [Example 26, Ditridecyl 6,6'-((3-((2-hydroxyethyl)(6-oxo-6-(tridecyloxy)hexyl)amino)propyl)azanediyl)dihexanoate], the “Encapsulation rate, %” value in data set [1] amounted to 99.66%. The “Positive rate, %” value in the data set on DC2.4 cells was determined as 95.84%. In addition, in data set [2], the viability at 24 h turned out to be 98.1%. In data set [3], this molecule gave a PDI of 0.09 and a Particle size of 95.80.
Turning to `CCCCCCCCCCCOC(=O)CCCN(CCCO)CCCCCN(CCCC(=O)OCCCCCCCCCCC)CCCC(=O)OCCCCCCCCCCC` [Example 83], the “Encapsulation rate, %” value in data set [1] turned out to be 99.79%. In the data set with DC2.4 cells, the “Positive rate, %” value is on record as 97.05%. The viability at 24 h in data set [2] is 84.2%. In data set [3], this molecule displayed a PDI of 73.54 and a Particle size of 99.79.
Turning to `CCCCCCCCCCCCOC(=O)CCCCCCN(CCCO)CCCN(CCCCCCC(=O)OCCCCCCCCCCCC)CCCCCCC(=O)OCCCCCCCCCCCC` [Example 48, Didodecyl 7,7'-((3-((7-(dodecyloxy)-7-oxoheptyl)(3-hydroxypropyl)amino)propyl)azanediyl)diheptanoate], in data set [1], the “Encapsulation rate, %” value amounted to 99.52%. For the same molecule, in the data set with DC2.4 cells, the “Positive rate, %” value was 97.26%. The viability at 24 h in data set [2] worked out at 94%. In data set [3], this molecule had a PDI of 0.16 and a Particle size of 76.18.
